System: HH patients
Assay: Phase 2 open-label dose-finding study in hereditary hemochromatosis patients
Format: in vivo, human
Description: A clinical efficacy study was conducted in HH patients. Subjects received subcutaneous Compound 25 for up to 24 weeks. Subjects were started at an initial dose of 10 mg per week subcutaneously. The dose was increased to 20 mg per week, and subsequently to 40 mg and to 80 mg per week as needed, based on tolerability and the pharmacodynamic marker TSAT. In addition, subcutaneous dosing schedules of 10 mg, 20 mg, 30, and 40 mg twice weekly (Day 1 and either Day 4 or Day 5 were tested). The majority of patients were administered doses of 20 mg per week or less. Subjects' safety and blood iron parameters (serum iron, serum ferritin, transferrin, and TSAT) were collected to monitor the pharmacodynamic effect of Compound 25. Effects on phlebotomy need and QoL data (36-Item Short Form Health Survey [SF-36], and Patient's Global Impression of Change [PGI-C]) were also be collected and tabulated.
Individual subject's dose and schedule were determined based on the pharmacodynamic (PD) marker TSAT measured at two time points following dosing: once at peak PD effect one day post dose and once at trough PD effect. […] The trough PD effect was the TSAT value measured 7 days after the Compound 25 dose (and before the next dose) for once weekly dosing or 7 days after the first dose in a week for twice weekly dosing. […] To facilitate dose escalation and the identification of a therapeutic dose, investigators assessed TSAT values on days subjects came to the clinic for any dose adjustments.
Methods: This single-arm, open-label, dose-finding phase 2 study investigated subcutaneous hepcidin mimetic (Compound 25) in patients (pts) with confirmed HH who were on documented stable phlebotomies (phl) for at least 6 months (mos) prior to treatment with a phl frequency of 0.25-1 per month. […] Endpoints included TSAT, serum iron, serum transferrin and serum ferritin, liver iron content (LIC) measured by FerriScan MRI, adverse events, and patient-reported outcomes on the Patient Global Impression of change (PGI-C) and Medical Outcome Study Questionnaire Short Form Health Survey (SF-36). […]

- hematological parameters (hematocrit, erythrocytes, leucocytes, platelets) (human, in vivo): no notable changes
Compound: CCCCCCCCCCCCCCCC(=O)N[C@@H](CCC(=O)NCCCC[C@@H]1NC(=O)[C@H]([C@@H](C)CC)NC(=O)[C@@H](NC(=O)[C@@H]2CCCN2C(=O)[C@H](Cc2ccccc2)NC(=O)[C@H](Cc2c[nH]cn2)NC(=O)[C@@H](NC(=O)[C@H](CC(=O)O)NC(=O)CC(C)C)[C@@H](C)O)CSSC[C@@H](C(=O)N[C@@H](CCCCN)C(N)=O)NC(=O)CNC(=O)[C@H](CCCCN)NC(=O)[C@H](CO)NC(=O)[C@H](CCCNC(=N)N)NC(=O)[C@@H]2CCCN2C(=O)[C@H](CCC(=O)O)NC(=O)[C@H](Cc2ccccc2)NC1=O)C(=O)O [Compound 25, Isovaleric acid-DTHFPCI(K(isoGlu-Palm))FEPRSKGCK-NH2]
- tolerability (HH patients, subcutaneous, up to 24 weeks): generally well tolerated
- treatment-related adverse events, severity (all treatment-related adverse events): CTCAE grade 1 or 2

— US20240293511A1, “HEPCIDIN MIMETICS FOR TREATMENT OF HEREDITARY HEMOCHROMATOSIS” (Protagonist Therapeutics, Inc., priority 2021, published 2024)
